The record followed here is ChEMBL document CHEMBL3352672, “Lithocarpic acids O-S, five homo-cycloartane derivatives from the cupules of Lithocarpus polystachyus” (Bioorg Med Chem Lett, 2014).

Holding throughout (format): cell-based
Test [1] addresses 11-beta-hydroxysteroid dehydrogenase 1 (Mus musculus) (UniProt P50172). Kind of test: Inhibition of mouse 11beta-HSD1 in expressed in HEK293 cells microsomal fractions incubated with NADPH and [3H]-cortisone at 10 uM by scintillation proximity assay.
Test [2] addresses 11-beta-hydroxysteroid dehydrogenase 1 (Mus musculus, UniProt P50172). Kind of test: Inhibition of mouse 11beta-HSD1 in expressed in HEK293 cells microsomal fractions incubated with NADPH and [3H]-cortisone by scintillation proximity assay.
The target of test [3] is T1, 11-beta-hydroxysteroid dehydrogenase 1 (Homo sapiens, UniProt P28845). Kind of test: Inhibition of human 11beta-HSD1 in expressed in HEK293 cells microsomal fractions incubated with NADPH and [3H]-cortisone at 10 uM by scintillation proximity assay.
Target sequence in this assay (P28845 whole entry, looked up): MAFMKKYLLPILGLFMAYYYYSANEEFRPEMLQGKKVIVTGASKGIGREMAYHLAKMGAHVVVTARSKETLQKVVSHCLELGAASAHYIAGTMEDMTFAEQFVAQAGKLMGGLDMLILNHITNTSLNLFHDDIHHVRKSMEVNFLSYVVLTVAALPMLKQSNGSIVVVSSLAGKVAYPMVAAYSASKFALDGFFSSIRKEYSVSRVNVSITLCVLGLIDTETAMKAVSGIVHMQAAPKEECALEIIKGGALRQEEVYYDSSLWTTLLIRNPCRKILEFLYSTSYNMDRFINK
In test [4] the target is T1, 11-beta-hydroxysteroid dehydrogenase 1. Kind of test: Inhibition of human 11beta-HSD1 in expressed in HEK293 cells microsomal fractions incubated with NADPH and [3H]-cortisone by scintillation proximity assay.
Target sequence in this assay (P28845 whole entry): as the sequence (P28845 whole entry, looked up) above

Sequence of 11-beta-hydroxysteroid dehydrogenase 1 (Mus musculus) (P50172 whole entry, looked up): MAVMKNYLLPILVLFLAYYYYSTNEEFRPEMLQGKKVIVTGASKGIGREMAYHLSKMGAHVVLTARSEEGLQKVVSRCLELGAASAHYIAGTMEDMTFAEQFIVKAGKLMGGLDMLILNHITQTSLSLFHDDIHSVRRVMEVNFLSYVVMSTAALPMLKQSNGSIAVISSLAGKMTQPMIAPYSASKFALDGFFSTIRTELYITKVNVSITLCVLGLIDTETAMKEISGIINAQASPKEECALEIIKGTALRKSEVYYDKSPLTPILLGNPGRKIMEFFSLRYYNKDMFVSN
Sequence of 11-beta-hydroxysteroid dehydrogenase 1 (Mus musculus, UniProt P50172) (P50172 whole entry): as the sequence (P50172 whole entry, looked up) above

Turning to `C=C(CC[C@@H](COC(C)=O)[C@H]1CC[C@@]2(C)[C@@H]3CC[C@@H](C(=C)C)[C@@]4(CCC(=O)O)C[C@@]34CC[C@]12C)C(C)C`, the inhibition was 73% in test [1] and greater than 60% in test [3]. Also, the half-maximal inhibitory concentration (IC50) in test [2] was determined as 2.8 µM; in test [4] it was 4.1 µM.

Consider `C=C(CC[C@@H](CO)[C@H]1CC[C@@]2(C)[C@@H]3CC[C@@H](C(=C)C)[C@@]4(CCC(=O)O)C[C@@]34CC[C@]12C)C(C)C`, for which the inhibition was 94% in test [1] and greater than 80% in test [3]. Also, the figures for the IC50 in test [2] and in test [4] were 0.49 µM and 1.4 µM, respectively.

`C=C(CC[C@@H](C(=O)O)[C@H]1CC[C@@]2(C)[C@@H]3CC[C@H]4C(C)(C)C(=O)CC[C@@]45C[C@@]35CC[C@]12C)C(C)C` came in with an inhibition in test [1] greater than 60%. Besides, the IC50 in test [4] is 2.3 µM.

Consider `C=C(CC[C@@H](COC(C)=O)[C@H]1CC[C@@]2(C)[C@@H]3CC[C@@H](C(C)(C)O)[C@@]4(CCC(=O)O)C[C@@]34CC[C@]12C)C(C)C`, for which half-maximal inhibition in test [4] (IC50) was put at 3.8 µM.
